Assays:
Assay type in all cases: cell-based, human
plasmablasts (PB) = assay: Generation of plasmablasts at D6 in the in vitro B cell differentiation model (flow cytometry); conditions: SSO at 2 μM added at D4
Method: (§1) FIG. 1. Specific PIM2 inhibition affects the generation of plasmablasts • A. Diagram explaining SSO-PIM2 action. It binds to the second exon of the gene PIM2 leading in a skip of this exon during transcription and finally results to a frame shift and created an early stop-codon during translation. The protein is so a non-functional truncated protein. • B. Activated B cells were treated at D4 with an increasing dose of SSO-PIM2 and SSO-CTL (control condition) and recovered 48 hours later (at D6). PIM2 mRNA residual expression compared to the control condition adjust at 100% (mean±SD, n=3) and agarose gel of PIM2 PCR, showing exon skipping. • C. At D4, activated B cells were treated with SSO-PIM2 and SSO-CTL (control condition) at 2 μM. CD23+ aBC and PB were sorted at D6. PIM2 mRNA relative expression (mean±SD, n=4) (left) and PIM2 protein expression by western blot (middle) and immunofluorescence (right) after PIM2 inhibition. • D-E. Decrease of PB generation after PIM2 inhibition. Cells were treated with SSO-PIM2 at 2 μM (D) or increase dose of the PIM inhibitor AZD1208 (PIMi as indicated, in μM) (E) and their control condition (SSO-CTL and DMSO respectively). The untreated condition is referred as “NT” (=no treatment). Left: Absolute number of PB obtained at D6 after PIM2 inhibition. […] Right: Proportion of PB evaluated at D6 by flow cytometry after treatment with SSO-PIM2 at 2 μM. […]

[1] = tested on: IRF4, PRDM1, XBPIS, BACH2, BCL6, SPIB, IRF8 and PAX5; assay: Transcription factor mRNA relative expression in generated PBs; conditions: SSO-PIM2 present
Method: as §1

p21^Cip1/WAF1 = assay: CDKN1A gene and p21^Cip1/WAF1 protein expression in PBs
Excerpt: Like p27^Kip1, p21^Cip1/WAF1 is a tight-binding inhibitor of CDKs and inhibits cell cycle entry into S phase (Elledge et al., 1996). Plasmablast commitment leads to a significant increase of the CDKN1A gene, which encodes p21^Cip1/WAF1, and this independently to the expression of TP53 (data not shown). […] We then wondered whether PIM2 could modify p21^Cip1/WAF1 expression. […] To address this scenario, we developed endogenous protein immunoprecipitation (IP) and found in generated PBs and XG21 cell line as well that PIM2, p21^Cip1/WAF1 and HSP90β form a cytoplasmic multiprotein complex (data not shown).

PIM2 = PIM2 expression in in vitro differentiated activated B cells / plasmablasts after SSO treatment (mRNA, PCR, western blot, immunofluorescence)
Method: FIG. 1. Specific PIM2 inhibition affects the generation of plasmablasts • A. Diagram explaining SSO-PIM2 action. It binds to the second exon of the gene PIM2 leading in a skip of this exon during transcription and finally results to a frame shift and created an early stop-codon during translation. The protein is so a non-functional truncated protein. • B. Activated B cells were treated at D4 with an increasing dose of SSO-PIM2 and SSO-CTL (control condition) and recovered 48 hours later (at D6). PIM2 mRNA residual expression compared to the control condition adjust at 100% (mean±SD, n=3) and agarose gel of PIM2 PCR, showing exon skipping. • C. At D4, activated B cells were treated with SSO-PIM2 and SSO-CTL (control condition) at 2 μM. CD23+ aBC and PB were sorted at D6. PIM2 mRNA relative expression (mean±SD, n=4) (left) and PIM2 protein expression by western blot (middle) and immunofluorescence (right) after PIM2 inhibition. • D-E. Decrease of PB generation after PIM2 inhibition. Cells were treated with SSO-PIM2 at 2 μM (D) or increase dose of the PIM inhibitor AZD1208 (PIMi as indicated, in μM) (E) and their control condition (SSO-CTL and DMSO respectively). The untreated condition is referred as “NT” (=no treatment). Left: Absolute number of PB obtained at D6 after PIM2 inhibition. Data are representative with bars at mean±SD, n=6. Right: Proportion of PB evaluated at D6 by flow cytometry after treatment with SSO-PIM2 at 2 μM. Data are representative of six independent experiments. • F. Transcription factors (IRF4, PRDM1, XBPIS, BACH2, BCL6, SPIB, IRF8 and PAX5) mRNA relative expression after specific PIM2 inhibition. Data are representative with bars at mean±SD, n=4.
To identify genes whose transcription was acutely regulated during the final commitment step we developed our previously described in vitro differentiation model system on human naive B cells (NBCs) giving at day-6 (D6) four cell populations that were explored transcriptionally (data not shown) (Caron et al., 2015; Le Gallou et al., 2012; Pignarre et al., 2021). […]

PIM1 = PIM1 expression after SSO-PIM2 treatment; conditions: 2 μM

Substance: 5′-CCTCATGACGGATACCTGGAGTC-3′ (all phosphorodiamidate morpholino (PMO)) [SSO-PIM2]
- generated PB at D6 (plasmablasts (PB)): severe decrease in generated PB
- expression of key transcription factors involved in B cell differentiation in generated PBs [1]: not affected
- CDKN1A gene upregulation in PBs (p21^Cip1/WAF1): did not interfere with CDKN1A gene upregulation
- p21^Cip1/WAF1 protein expression and localization (p21^Cip1/WAF1; PBs): decreased dramatically its cytoplasmic expression without nuclear relocalization
- PIM2 knockdown (PIM2; 2 μM): near-knockout condition for PIM2
- duration of PIM2 near-knockout (PIM2; 2 μM): up to 96 h
- inhibition of PIM2 expression (PIM2; D6 collected PBs, increasing dose added at D4, 48 hours): dose-dependent inhibition of PIM2 expression
- effect on PIM1 expression (PIM1): without affecting PIM1 expression
